Measured values taken from patent US10046038B2, “Leptospira with increased antigenic mass” (priority 2012, dated 2018).
Where two headings read alike, the source gives them in different places.

Tests used:
[1] = test system: Leptospira serogroup Icterohaemorrhagiae; assay: Antigenic mass of fermenter culture by antigen Elisa; type: cell-based, L. interrogans (sensu lato); conditions: for relative Ag. mass (%): non-supplemented = 100
Procedure: A working seed of a strain of L. interrogans was inoculated into EMJH medium and incubated at 29° C. for 3 to 5 days. If needed up to 5 consecutive pre-culture passages could be made, whereby the pre-cultures were visually inspected for sufficient proliferation (turbidity) as criterion for transfer to the next passage.
(§1) All experiments were performed in 0.5, 2 or 20 L working volume, computer-controlled fermenters (Sartorius), which were filled with 0.5, 1 or 10 L sterile-filtered EMJH medium, respectively. The standard EMJH medium contained 1% w/v BSA and 0.125% w/v polysorbate 80. The pH of the medium was 7.4 ±0.1 at start. The fermenter was inoculated with 5% v/v serogroup lcterohaemorrhagiae pre-culture (passage 5), giving an inoculation density of 2-4×10^7 cells/ml at day 0.
(§2) During all fermentation experiments the temperature was controlled at about 29° C. The medium was aerated with headspace airflow, and the dissolved oxygen (pO2) concentration was controlled by automatic variation of the agitation-rate, to maintain a set pO2 concentration. Temperature, pH and pO2 concentration were monitored online, but pH and foam formation were not controlled.
In comparative experiments up to 4 fermenters were run in parallel, which started off simultaneously with the same medium and Leptospira inoculum. One fermenter then usually contained only standard EMJH medium and served as reference, while in the others different supplementations of polyunsaturated C18 fatty acid were made.
(§3) Supplementation was done either with pure linoleic acid (Sigma Aldrich, >99% pure) as a 10% v/v stock in absolute ethanol (JT Baker). Alternatively, linoleic acid was supplemented by using a BSA that was created with a high level of linoleic acid (high LA BSA). This high LA BSA was used either to replace a standard BSA in EMJH medium, or was used in addition to BSA in the EMJH medium, in which case it was added as a 25% w/v stock solution in sterile water. The high LA BSA or the pure linoleic acid/ethanol supplements were fed to a fermenter over the course of 4 hours, at 0.1-0.2 ml/hour, until the fermenter culture had received a desired total amount of linoleic acid. Different total available levels of linoleic acid have been tested, of between about 5 and 425 μg/ml in the total volume. The fermenter cultures of Leptospira were supplemented at different cell-densities i.e. at early-, mid- or end phase culture.
(§4) Daily 5 ml samples were taken aseptically, directly from the fermenter, for analyses of total cell count (by Petroff-Hausser counting chamber); antigenic mass (by antigen amount Elisa); inactivated cells; and for profiling of the fatty acid type and-relative amounts (by gas chromatography) in the culture medium.
(§5) Samples were inactivated with 0.1 or 0.2% v/v BPL, at 29° C. for 16-24 hours. The inactivated Leptospira were tested in an antigen Elisa within 24 hours.
(§6) For a reference see: R. A. Hartskeerl et al., (International course on laboratory methods for the diagnosis of Leptospirosis, 4th Edition, 1 Apr. 2004. Royal Tropical Institute, Amsterdam).
(§7) The Elisa's were set up as capture assays, whereby the same moab was used for coating and for detection.
A reference standard was prepared for each Leptospira strain that was tested by antigen Elisa. The standard is a batch of monovalent Leptospira antigen, from inactivated cells. This was prepared using common techniques, essentially by proliferating a specific strain of Leptospira in EMJH medium as described above, and was inactivated as described before.

[2] = test system: Leptospira serogroup Tarassovi; type: cell-based, L. interrogans (sensu lato); conditions: EMJH standard BSA, vs unsupplemented reference culture
Procedure: as §1, §3, §4, §5, §6, §7
A reference standard was prepared for each Leptospira strain that was tested by antigen Elisa. The standard is a batch of monovalent Leptospira antigen, from inactivated cells. This was prepared using common techniques, essentially by proliferating a specific strain of Leptospira in EMJH medium as described above, and was inactivated as described before. Next the standard was concentrated and/or diluted in phosphate buffered saline, to contain about 1×10^9 cells/ml. An arbitrary number of antigen units was affixed to the sample, for example: 1000 Units/ml. When the standard needed replenishing, a subsequent preparation of the same standard, was compared and titrated alongside the old standard several times, before replacing it.
As before, the average antigenic mass score by Elisa was calculated per 1×10^9 cells (pre-inactivation). […] The average antigenic mass 1×10^9 cells of the reference culture was set at 0% increase.
Both alpha-and gamma C18:3 were purchased as pure chemicals (>98%).

[3] = test system: Leptospira serogroup Australis (serovar Bratislava); type: cell-based, L. interrogans (sensu lato); conditions: linoleic acid supplementation of low LA BSA medium
[4] = test system: Leptospira serogroup Grippotyphosa; type: cell-based, L. interrogans (sensu lato); conditions: supplementation with linoleic acid; days 4 and 5
[5] = test system: Leptospira serogroup Tarassovi; assay: Biomass and toxicity in fermenter culture; type: cell-based, L. interrogans (sensu lato); conditions: 300 μg/ml C18:2; EMJH standard BSA
Procedure: In a supplementation similar to that described in Example 6 above, the effect of supplementation with different amounts of C18:2 fatty acid on the biomass and the antigenic mass of a culture of Leptospira serogroup Tarassovi in EMJH medium with standard BSA was tested.

[6] = test system: Leptospira serogroup Icterohaemorrhagiae; assay: Biomass (total cell count) and toxicity in fermenter culture; type: cell-based, L. interrogans (sensu lato); conditions: additional 400 μg/ml pure linoleic acid in ethanol; EMJH with high LA BSA
Procedure: as §2

Leptospira = conditions: most serogroups other than Canicola; alpha or gamma isomer

CCCCCC=CCC=CCCCCCCCC(=O)O [linoleic acid, 9, 12-octadecadienoic acid]
Ag. mass, Ag U/10^9 cells/ml ([1]; 100 μg/ml added at 1 × 10^8 cells/ml, total 105 μg/ml, average of days 4-5): 1783 Ag U/10^9 cells/ml | relative Ag. mass (%) ([1]; 100 μg/ml added at 1 × 10^8 cells/ml, average of days 4-5): 226% | Ag. mass, Ag U/10^9 cells/ml ([1]; 100 μg/ml added at 5 × 10^8 cells/ml, total 105 μg/ml, average of days 4-5): 1564 Ag U/10^9 cells/ml | relative Ag. mass (%) ([1]; 100 μg/ml added at 5 × 10^8 cells/ml, average of days 4-5): 198% | Ag. mass, Ag U/10^9 cells/ml ([1]; 100 μg/ml added at 9 × 10^8 cells/ml, total 105 μg/ml, average of days 4-5): 1656 Ag U/10^9 cells/ml | relative Ag. mass (%) ([1]; 100 μg/ml added at 9 × 10^8 cells/ml, average of days 4-5): 210% | antigenic mass ([1]; 100 μg/ml pure linoleic acid in ethanol added on day 2 (mid-exponential) to EMJH with high LA BSA, average of days 3-5): 1767 Ag. U/1×10^9 cells | increase in relative antigenic mass ([1]; 100 μg/ml single fatty acid, FIGS. 37 and 38): 77% | increase of antigenic mass ([1]; 25 instead of 5 μg/ml linoleic acid available): 124% | increase of the antigenic mass (in words) ([1]; additional 200 μg/ml pure linoleic acid, EMJH with high LA BSA): slightly less increase of the antigenic mass compared to that of the 100 μg/ml group | Ag. mass, Ag U/10^9 cells/ml ([1]; supplem. pure C18:2 75 μg/ml, total 80 μg/ml, EMJH standard BSA, average of days 3-5): 1450 Ag U/10^9 cells/ml | relative Ag. mass (%) ([1]; supplem. pure C18:2 75 μg/ml, total 80 μg/ml, average of days 3-5): 199% | Ag. mass, Ag U/10^9 cells/ml ([1]; supplem. pure C18:2 150 μg/ml, total 155 μg/ml, EMJH standard BSA, average of days 3-5): 1550 Ag U/10^9 cells/ml | relative Ag. mass (%) ([1]; supplem. pure C18:2 150 μg/ml, total 155 μg/ml, average of days 3-5): 213% | increase in antigenic mass per unit of biomass ([2]; 100 μg/ml C18:2): 67% | increase in antigenic mass per unit of biomass ([2]; 200 μg/ml C18:2): 99% | increase in antigenic mass [3]: 45% | increase in the antigenic mass [4]: 63% | toxicity to the culture [5]: toxic | toxicity for the bacteria (cell numbers after supplementation) [6]: induced toxicity

CC/C=C\C/C=C\C/C=C\CCCCCCCC(=O)O [C18:3, Linolenic acid]
supplementation level showing cytotoxicity (Leptospira): ≥ 200 µg/mL
